The target of assay [1] is Dual specificity mitogen-activated protein kinase kinase 1 (Homo sapiens) (UniProt Q02750). In words: Binding affinity to wild-type human full length MEK1 (M1 to V393 residues) expressed in mammalian expression system assessed as residual binding level at 10 uM by Kinomescan method relative to control.
The target of assay [2] is Casein kinase I isoform alpha-like (Homo sapiens) (UniProt Q8N752). In words: Binding affinity to wild-type human full length CSNK1A1L (M1 to N337 residues) expressed in bacterial expression system assessed as residual binding level at 10 uM by Kinomescan method relative to control.
Assay [3] addresses Serine/threonine-protein kinase MRCK gamma (Homo sapiens) (UniProt Q6DT37). In words: Binding affinity to wild-type human partial length DMPK2 (S46 to S408 residues) expressed in bacterial expression system assessed as residual binding level at 10 uM by Kinomescan method relative to control.
In assay [4] the test system is Epidermal growth factor receptor (Homo sapiens), P00533 [L858R]. Put plainly: Binding affinity to human partial length EGFR L858R mutant (R669 to V1011 residues) expressed in bacterial expression system assessed as residual binding level at 10 uM by Kinomescan method relative to control.
The target of assay [5] is MAP/microtubule affinity-regulating kinase 4 (Homo sapiens) (UniProt Q96L34). In words: Binding affinity to wild-type human partial length MARK4 (K29 to G340 residues) expressed in bacterial expression system assessed as residual binding level at 10 uM by Kinomescan method relative to control.
In assay [6] the target is Serine/threonine-protein kinase PknB (Mycobacterium tuberculosis) (UniProt P9WI81). Put plainly: Binding affinity to wild-type Mycobacterium tuberculosis partial length PKNB (M1 to G279 residues) expressed in mammalian expression system assessed as residual binding level at 10 uM by Kinomescan method relative to control.
A further assay relates to MDA-MB-231. In words: Cytotoxicity against human MDA-MB-231 cells assessed as growth inhibition incubated for 48 hrs by Hoechst 33342 staining based assay. The assay is classed as cell-based. The following applies: MDA-MB-231, 48 h.
The target in assay [7] is Calcium/calmodulin-dependent protein kinase type 1G (Homo sapiens) (UniProt Q96NX5). Put plainly: Binding affinity to wild-type human partial length CAMK1G (M1 to A342 residues) expressed in bacterial expression system assessed as residual binding level at 10 uM by Kinomescan method relative to control.
Assay [8] has as its target Cyclin-dependent kinase 11A (Homo sapiens) (UniProt Q9UQ88). Put plainly: Binding affinity to wild-type human partial length CDC2L2 (D391 to K730 residues) expressed in bacterial expression system assessed as residual binding level at 10 uM by Kinomescan method relative to control.
Assay [9] addresses Serine/threonine-protein kinase 38-like (Homo sapiens) (UniProt Q9Y2H1). Put plainly: Binding affinity to wild-type human partial length NDR2 (N34 to E447 residues) expressed in bacterial expression system assessed as residual binding level at 10 uM by Kinomescan method relative to control.
Assay [10] addresses Dual specificity mitogen-activated protein kinase kinase 7 (Homo sapiens) (UniProt O14733). Put plainly: Binding affinity to wild-type human full length MKK7 (M1 to R419 residues) expressed in mammalian expression system assessed as residual binding level at 10 uM by Kinomescan method relative to control.
For assay [11], the target named is Epidermal growth factor receptor (Homo sapiens) (UniProt P00533). Put plainly: Binding affinity to wild-type human partial length EGFR (R669 to V1011 residues) expressed in bacterial expression system assessed as residual binding level at 10 uM by Kinomescan method relative to control.
The test system of assay [12] is Hepatocyte growth factor receptor (Homo sapiens), P08581 [M1250T]. Put plainly: Binding affinity to human partial length MET M1250T mutant (D1010 to S1367 residues) expressed in bacterial expression system assessed as residual binding level at 10 uM by Kinomescan method relative to control.
Assay [13] concerns the target Ribosomal protein S6 kinase alpha-4 (Homo sapiens) (UniProt O75676). Put plainly: Binding affinity to wild-type human partial length C-terminal RPS6KA4 kinase domain 2 (M375 to T705 residues) expressed in mammalian expression system assessed as residual binding level at 10 uM by Kinomescan method relative to control.
The target in assay [14] is STE20/SPS1-related proline-alanine-rich protein kinase (Homo sapiens) (UniProt Q9UEW8). Put plainly: Binding affinity to wild-type human partial length STK39 (P43 to I357 residues) expressed in mammalian expression system assessed as residual binding level at 10 uM by Kinomescan method relative to control.
The subject of assay [15] is Tyrosine-protein kinase ABL1 (Homo sapiens), P00519 [M351T]. In words: Binding affinity to human phosphorylated ABL1 M351T mutant (S229 to K512 residues) expressed in mammalian expression system assessed as residual binding level at 10 uM by Kinomescan method relative to control.
For assay [16], the target named is Ribosomal protein S6 kinase alpha-3 (Homo sapiens) (UniProt P51812). Put plainly: Binding affinity to wild-type human partial length N-terminal RSK2 kinase domain 1 (M1 to D394 residues) expressed in mammalian expression system assessed as residual binding level at 10 uM by Kinomescan method relative to control.
Assay [17] addresses Vascular endothelial growth factor receptor 3 (Homo sapiens) (UniProt P35916). In words: Binding affinity to wild-type human partial length FLT4 (E821 to E1196 residues) expressed in bacterial expression system assessed as residual binding level at 10 uM by Kinomescan method relative to control.
Assay [18] concerns the target Mast/stem cell growth factor receptor Kit (Homo sapiens) (UniProt P10721). Put plainly: Binding affinity to wild-type human partial length KIT (I571 to D952 residues) expressed in bacterial expression system assessed as residual binding level at 10 uM by Kinomescan method relative to control.
Assay [19] has as its target Glycogen synthase kinase-3 beta (Homo sapiens) (UniProt P49841). Put plainly: Binding affinity to wild-type human full length GSK3B (M1 to T433 residues) expressed in mammalian expression system assessed as residual binding level at 10 uM by Kinomescan method relative to control.
The target of assay [20] is Mitogen-activated protein kinase 9 (Homo sapiens) (UniProt P45984). Put plainly: Binding affinity to wild-type human full length JNK2 (M1 to Q382 residues) expressed in mammalian expression system assessed as residual binding level at 10 uM by Kinomescan method relative to control.
Assay [21] deals with Serine/threonine-protein kinase DCLK3 (Homo sapiens) (UniProt Q9C098). Put plainly: Binding affinity to wild-type human partial length DCAMKL3 (E140 to V628 residues) expressed in bacterial expression system assessed as residual binding level at 10 uM by Kinomescan method relative to control.
In assay [22] the target is Megakaryocyte-associated tyrosine-protein kinase (Homo sapiens) (UniProt P42679). Put plainly: Binding affinity to wild-type human full length CTK (M43 to P508 residues) expressed in mammalian expression system assessed as residual binding level at 10 uM by Kinomescan method relative to control.
The target in assay [23] is Mitogen-activated protein kinase 14 (Homo sapiens) (UniProt Q16539). In words: Binding affinity to wild-type human full length p38-alpha (M1 to S360 residues) expressed in bacterial expression system assessed as residual binding level at 10 uM by Kinomescan method relative to control.

These results are taken from ChEMBL document CHEMBL4390652, “Design, biological evaluation and X-ray crystallography of nanomolar multifunctional ligands targeting simultaneously acetylcholinesterase and glycogen synthase kinase-3” (Eur J Med Chem, 2019).

One may read the IC50 as the concentration that inhibits the measured activity by half.

MAP/microtubule affinity-regulating kinase 4 (Homo sapiens), sequence (Q96L34 whole entry, the tested form may be a part): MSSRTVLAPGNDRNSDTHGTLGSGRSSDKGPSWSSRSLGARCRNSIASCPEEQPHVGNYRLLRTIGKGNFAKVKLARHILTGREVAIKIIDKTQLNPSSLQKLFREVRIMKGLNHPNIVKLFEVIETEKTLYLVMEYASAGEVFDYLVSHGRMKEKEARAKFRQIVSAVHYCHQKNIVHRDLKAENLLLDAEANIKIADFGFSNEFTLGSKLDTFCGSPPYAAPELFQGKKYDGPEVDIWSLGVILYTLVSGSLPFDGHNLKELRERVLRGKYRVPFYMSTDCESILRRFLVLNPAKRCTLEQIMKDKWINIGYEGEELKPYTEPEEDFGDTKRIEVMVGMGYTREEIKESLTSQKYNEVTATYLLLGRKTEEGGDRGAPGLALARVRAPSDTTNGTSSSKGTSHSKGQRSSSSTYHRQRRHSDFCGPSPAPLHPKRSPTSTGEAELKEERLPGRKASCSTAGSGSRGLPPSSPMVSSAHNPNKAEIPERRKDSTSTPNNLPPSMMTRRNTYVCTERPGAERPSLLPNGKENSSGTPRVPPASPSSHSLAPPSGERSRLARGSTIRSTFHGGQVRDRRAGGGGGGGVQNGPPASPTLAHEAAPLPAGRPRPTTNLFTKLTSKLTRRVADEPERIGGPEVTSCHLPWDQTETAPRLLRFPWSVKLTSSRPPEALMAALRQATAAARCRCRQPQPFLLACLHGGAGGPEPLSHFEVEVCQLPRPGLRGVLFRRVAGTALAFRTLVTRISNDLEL
Serine/threonine-protein kinase MRCK gamma (Homo sapiens), sequence (Q6DT37 whole entry, the tested form may be a part): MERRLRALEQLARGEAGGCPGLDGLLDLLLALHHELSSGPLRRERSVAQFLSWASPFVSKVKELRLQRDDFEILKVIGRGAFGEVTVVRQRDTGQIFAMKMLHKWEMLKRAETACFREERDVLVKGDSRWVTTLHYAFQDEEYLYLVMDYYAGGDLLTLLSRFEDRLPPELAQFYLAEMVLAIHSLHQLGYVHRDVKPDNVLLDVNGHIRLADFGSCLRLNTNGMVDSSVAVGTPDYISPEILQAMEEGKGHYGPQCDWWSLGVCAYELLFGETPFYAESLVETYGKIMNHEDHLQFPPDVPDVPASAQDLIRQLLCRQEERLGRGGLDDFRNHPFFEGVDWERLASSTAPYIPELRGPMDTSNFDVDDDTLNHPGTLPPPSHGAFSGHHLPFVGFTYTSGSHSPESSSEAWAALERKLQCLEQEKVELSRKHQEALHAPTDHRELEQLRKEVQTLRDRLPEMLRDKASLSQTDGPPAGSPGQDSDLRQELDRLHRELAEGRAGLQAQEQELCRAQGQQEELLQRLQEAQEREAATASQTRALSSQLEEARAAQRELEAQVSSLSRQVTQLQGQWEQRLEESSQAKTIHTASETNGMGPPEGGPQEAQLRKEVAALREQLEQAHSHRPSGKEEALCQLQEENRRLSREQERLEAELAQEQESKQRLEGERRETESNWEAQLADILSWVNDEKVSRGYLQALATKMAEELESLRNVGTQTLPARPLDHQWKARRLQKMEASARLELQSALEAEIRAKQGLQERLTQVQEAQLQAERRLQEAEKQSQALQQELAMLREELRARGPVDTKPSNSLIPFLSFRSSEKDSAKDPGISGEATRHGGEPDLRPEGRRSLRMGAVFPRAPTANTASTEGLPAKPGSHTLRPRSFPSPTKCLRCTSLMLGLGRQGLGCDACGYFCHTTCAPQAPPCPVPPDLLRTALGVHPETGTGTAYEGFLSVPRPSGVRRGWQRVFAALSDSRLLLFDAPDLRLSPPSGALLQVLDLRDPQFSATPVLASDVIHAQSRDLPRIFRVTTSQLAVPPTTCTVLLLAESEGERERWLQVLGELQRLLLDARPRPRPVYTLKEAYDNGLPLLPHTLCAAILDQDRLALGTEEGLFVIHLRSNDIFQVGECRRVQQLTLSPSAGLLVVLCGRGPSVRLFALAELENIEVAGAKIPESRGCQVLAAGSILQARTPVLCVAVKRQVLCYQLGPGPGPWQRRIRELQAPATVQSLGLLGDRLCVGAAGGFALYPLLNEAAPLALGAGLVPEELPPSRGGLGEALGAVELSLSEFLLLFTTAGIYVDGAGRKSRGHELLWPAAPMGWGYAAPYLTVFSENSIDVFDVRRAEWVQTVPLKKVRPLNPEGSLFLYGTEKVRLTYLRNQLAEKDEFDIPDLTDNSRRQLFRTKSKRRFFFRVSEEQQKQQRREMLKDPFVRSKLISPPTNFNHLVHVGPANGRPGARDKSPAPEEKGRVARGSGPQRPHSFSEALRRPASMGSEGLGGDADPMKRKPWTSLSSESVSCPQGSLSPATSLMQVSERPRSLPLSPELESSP
Mitogen-activated protein kinase 9 (Homo sapiens), sequence (P45984 whole entry, looked up, the tested form may be a part): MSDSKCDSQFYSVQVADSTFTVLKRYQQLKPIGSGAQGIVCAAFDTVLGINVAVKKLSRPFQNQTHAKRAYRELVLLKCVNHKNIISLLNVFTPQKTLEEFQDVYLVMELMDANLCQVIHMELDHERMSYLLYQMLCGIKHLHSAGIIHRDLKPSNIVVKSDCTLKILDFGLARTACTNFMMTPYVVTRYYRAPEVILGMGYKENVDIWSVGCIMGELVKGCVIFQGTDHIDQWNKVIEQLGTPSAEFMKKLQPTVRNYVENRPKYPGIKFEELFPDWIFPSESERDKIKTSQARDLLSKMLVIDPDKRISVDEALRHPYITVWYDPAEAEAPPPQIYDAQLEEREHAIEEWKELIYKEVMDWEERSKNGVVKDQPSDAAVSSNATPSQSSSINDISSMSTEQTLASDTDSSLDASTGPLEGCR
Mast/stem cell growth factor receptor Kit (Homo sapiens), sequence (P10721 whole entry, the tested form may be a part): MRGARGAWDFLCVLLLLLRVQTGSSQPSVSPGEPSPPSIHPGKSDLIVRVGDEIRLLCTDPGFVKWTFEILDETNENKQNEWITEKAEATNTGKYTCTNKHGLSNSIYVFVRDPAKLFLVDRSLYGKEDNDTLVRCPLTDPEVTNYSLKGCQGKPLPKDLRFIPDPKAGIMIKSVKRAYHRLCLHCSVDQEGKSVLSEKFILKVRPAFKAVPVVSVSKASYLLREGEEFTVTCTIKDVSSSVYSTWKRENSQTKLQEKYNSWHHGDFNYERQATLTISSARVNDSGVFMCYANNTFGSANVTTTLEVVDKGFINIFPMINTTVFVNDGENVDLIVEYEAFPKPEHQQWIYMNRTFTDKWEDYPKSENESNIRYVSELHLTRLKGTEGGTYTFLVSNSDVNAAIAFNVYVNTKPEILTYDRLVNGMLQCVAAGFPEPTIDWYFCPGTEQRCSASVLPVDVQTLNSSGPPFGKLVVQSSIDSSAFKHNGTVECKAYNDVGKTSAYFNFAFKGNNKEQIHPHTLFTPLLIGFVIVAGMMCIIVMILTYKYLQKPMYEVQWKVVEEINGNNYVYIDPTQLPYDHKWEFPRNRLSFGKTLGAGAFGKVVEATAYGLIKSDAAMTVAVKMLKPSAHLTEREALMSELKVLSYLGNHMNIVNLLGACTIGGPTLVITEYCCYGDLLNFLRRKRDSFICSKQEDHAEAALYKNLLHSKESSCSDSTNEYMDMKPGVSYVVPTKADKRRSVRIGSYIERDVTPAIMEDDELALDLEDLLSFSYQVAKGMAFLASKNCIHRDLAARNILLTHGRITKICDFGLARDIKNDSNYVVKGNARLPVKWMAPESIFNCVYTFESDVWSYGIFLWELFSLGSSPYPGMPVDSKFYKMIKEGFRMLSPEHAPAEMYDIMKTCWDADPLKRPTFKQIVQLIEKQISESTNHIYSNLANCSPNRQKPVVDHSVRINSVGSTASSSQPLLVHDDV
Dual specificity mitogen-activated protein kinase kinase 1 (Homo sapiens), sequence (Q02750 whole entry, the tested form may be a part, canonical isoform): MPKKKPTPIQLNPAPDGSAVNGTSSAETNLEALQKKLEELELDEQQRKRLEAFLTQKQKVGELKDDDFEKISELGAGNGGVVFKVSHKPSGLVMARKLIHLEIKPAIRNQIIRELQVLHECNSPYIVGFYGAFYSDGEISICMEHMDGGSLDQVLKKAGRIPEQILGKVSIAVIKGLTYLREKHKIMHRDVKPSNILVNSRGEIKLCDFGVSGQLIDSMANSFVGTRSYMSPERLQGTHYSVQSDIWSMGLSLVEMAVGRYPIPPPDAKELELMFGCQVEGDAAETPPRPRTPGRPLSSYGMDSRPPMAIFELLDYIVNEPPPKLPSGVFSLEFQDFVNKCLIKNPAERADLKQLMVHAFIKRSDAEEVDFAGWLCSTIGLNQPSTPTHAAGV
Casein kinase I isoform alpha-like (Homo sapiens), sequence (Q8N752 whole entry, the tested form may be a part, canonical isoform): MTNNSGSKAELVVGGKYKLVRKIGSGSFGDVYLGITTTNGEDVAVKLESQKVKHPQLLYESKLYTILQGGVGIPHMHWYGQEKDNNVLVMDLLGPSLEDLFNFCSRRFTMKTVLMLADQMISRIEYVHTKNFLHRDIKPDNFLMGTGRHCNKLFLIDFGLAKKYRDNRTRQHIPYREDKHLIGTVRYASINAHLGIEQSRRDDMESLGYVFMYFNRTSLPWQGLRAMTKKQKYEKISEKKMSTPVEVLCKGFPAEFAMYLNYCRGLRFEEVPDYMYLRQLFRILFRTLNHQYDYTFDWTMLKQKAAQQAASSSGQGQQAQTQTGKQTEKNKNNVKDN
Serine/threonine-protein kinase 38-like (Homo sapiens), sequence (Q9Y2H1 2-464 limits assumed): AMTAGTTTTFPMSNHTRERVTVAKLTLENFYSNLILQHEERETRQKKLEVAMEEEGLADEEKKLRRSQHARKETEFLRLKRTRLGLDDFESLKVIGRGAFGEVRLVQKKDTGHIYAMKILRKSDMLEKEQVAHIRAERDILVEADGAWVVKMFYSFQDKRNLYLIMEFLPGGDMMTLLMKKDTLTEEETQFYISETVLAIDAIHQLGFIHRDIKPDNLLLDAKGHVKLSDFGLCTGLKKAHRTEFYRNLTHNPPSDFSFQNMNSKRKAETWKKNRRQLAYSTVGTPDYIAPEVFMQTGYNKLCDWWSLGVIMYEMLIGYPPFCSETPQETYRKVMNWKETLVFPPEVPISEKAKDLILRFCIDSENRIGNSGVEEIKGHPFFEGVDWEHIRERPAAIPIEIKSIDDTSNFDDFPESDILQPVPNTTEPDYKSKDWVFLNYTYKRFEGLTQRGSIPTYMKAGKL

For `O=C(Nc1cc(-c2cn(CCNc3c4c(nc5ccccc35)CCCC4)nn2)ccn1)Nc1cccc2c1C1CCCCN1C2=O` (racemic), the Activity was 7.6% in assay [1]; 4.5% in [2]; 100% in [3]; 80% in [4]; 35% in assay [5]; 3.3% in assay [6]. In addition, the Activity amounted to 44% in assay [7]; 99% in assay [8]; 99% in assay [9]; 100% in assay [10]; 79% in assay [11]; 91% in [12]. The Activity was found to be 69% in assay [13]; 100% in assay [14]; 2.1% in assay [15]; 1.7% in assay [16]; 2.7% in assay [17]; 0.25% in [18]. The Activity was 17% in [19]; 2.6% in [20]; 33% in assay [21]; 100% in assay [22]; 91% in [23]. Moreover, the IC50 in the assay on MDA-MB-231 was determined as 2000 nM.
